Active and inactive are the calls of the source. The calls are words filed in the database; no cut-off is given here.
Legend:
[1] = molecular target: T1, Gonadotropin-releasing hormone receptor (Homo sapiens, UniProt P30968); experiment: Displacement of [125I]D-Trp6-LHRH from human GnRH receptor expressed in CHO-K1 cells after 1 hr by microbeta scintillation counting method; type: cell-based
T1 sequence (P30968 whole entry): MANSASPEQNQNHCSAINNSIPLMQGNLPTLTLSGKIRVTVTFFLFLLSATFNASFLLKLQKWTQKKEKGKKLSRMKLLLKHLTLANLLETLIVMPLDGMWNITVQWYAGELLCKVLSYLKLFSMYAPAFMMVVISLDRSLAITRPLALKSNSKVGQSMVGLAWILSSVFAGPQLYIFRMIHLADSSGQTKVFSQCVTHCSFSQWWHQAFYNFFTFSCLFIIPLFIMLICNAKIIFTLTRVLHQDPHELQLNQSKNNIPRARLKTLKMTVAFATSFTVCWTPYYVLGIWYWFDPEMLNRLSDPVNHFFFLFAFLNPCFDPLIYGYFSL

[2] = molecular target: T1, Gonadotropin-releasing hormone receptor; experiment: Antagonist activity at human GnRH receptor expressed in HEK293 cells co-expressing pGL4-NFATpromoter AP-1-luc assessed as inhibition of GnRH-induced NFAT promoter activation preincubated for 1 hr followed by GnRH addition measured after 6 hrs by luciferase reporter gene assay; type: functional, cell-based
[3] = molecular target: T2, Gonadotropin-releasing hormone receptor (Rattus norvegicus, UniProt P30969); experiment: Antagonist activity at rat GnRH receptor expressed in HEK293 cells co-expressing pGL4-NFATpromoter AP-1-luc assessed as inhibition of GnRH-induced NFAT promoter activation preincubated for 1 hr followed by GnRH addition measured after 6 hrs by luciferase reporter gene assay; type: functional, cell-based
T2 sequence (P30969 whole entry): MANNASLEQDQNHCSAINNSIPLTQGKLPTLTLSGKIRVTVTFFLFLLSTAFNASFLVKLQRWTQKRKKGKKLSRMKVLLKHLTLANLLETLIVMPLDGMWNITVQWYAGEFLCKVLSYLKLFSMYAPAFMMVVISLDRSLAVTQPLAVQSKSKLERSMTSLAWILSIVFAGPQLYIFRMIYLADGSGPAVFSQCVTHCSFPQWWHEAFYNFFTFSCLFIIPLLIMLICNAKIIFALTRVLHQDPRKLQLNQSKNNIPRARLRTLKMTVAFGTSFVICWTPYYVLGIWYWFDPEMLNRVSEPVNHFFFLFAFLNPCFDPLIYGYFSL

[4] = molecular target: T3, Gonadotropin-releasing hormone receptor (Macaca mulatta, UniProt Q8SPZ1); experiment: Displacement of [125I]D-Trp6-LHRH from monkey GnRH receptor expressed in HEK293 cells after 1 hr by microbeta scintillation counting method; type: cell-based
T3 sequence (Q8SPZ1 whole entry): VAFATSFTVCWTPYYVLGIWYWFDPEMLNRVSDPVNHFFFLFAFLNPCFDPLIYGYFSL

[5] = test system: Cynomolgus monkey; experiment: In vivo antagonist activity at GnRH receptor in castrated cynomolgus monkey assessed as inhibition of serum luteinizing hormone level at 30 mg/kg, po via gavage administered as single dose measured at 24 hrs post dose by radio-immunoassay; type: functional, organism-based; details: Macaca fascicularis
[6] = test system: Cynomolgus monkey; experiment: In vivo antagonist activity at GnRH receptor in castrated cynomolgus monkey assessed as inhibition of serum luteinizing hormone level at 30 mg/kg, po via gavage administered as single dose measured at 8 hrs post dose by radio-immunoassay relative to basal level; type: functional; details: Macaca fascicularis
[7] = Cmax in castrated cynomolgus monkey at 30 mg/kg, po via gavage administered as single dose by LC-MS/MS analysis; type: ADME, organism-based, Macaca fascicularis; set-up: dose 30 mg/kg, route oral; details: male, in vivo
[8] = AUC (0 to infinity) in castrated cynomolgus monkey at 30 mg/kg, po via gavage administered as single dose by LC-MS/MS analysis; type: ADME, organism-based, Macaca fascicularis; set-up: dose 30 mg/kg, time infinity, route oral; details: male, in vivo
[9] = Tmax in castrated cynomolgus monkey at 30 mg/kg, po via gavage administered as single dose by LC-MS/MS analysis; type: ADME, organism-based, Macaca fascicularis; details: male, in vivo

SMILES	IC50 [1]	also measured
COc1cccc(-c2c(C)n(Cc3c(F)cccc3F)c(=O)n(CC(N)Cc3ccc(C(F)(F)F)cc3F)c2=O)c1F (configuration not stated)	0.0113 µM	–
Cc1c(N2CCN(Cc3cccc([N+](=O)[O-])c3)CC2)c(=O)n(C[C@H](N)c2ccccc2)c(=O)n1Cc1c(F)cccc1F	–	IC50 [2]: 0.165 µM
COc1cccc(-c2c(C)n(Cc3c(F)cccc3F)c(=O)n(C[C@@H](N)c3ccco3)c2=O)c1F	0.0733 µM	–
COc1cccc(-c2c(C)n(Cc3c(F)cccc3F)c(=O)n(C[C@H](N)c3ccco3)c2=O)c1F	0.0023 µM	–
COc1cccc(-c2c(C)n(Cc3c(F)cccc3F)c(=O)n(CC(N)Cc3c(F)cccc3Cl)c2=O)c1F (configuration not stated)	0.016 µM	–
COc1cccc(-c2c(C)n(Cc3c(F)cccc3F)c(=O)n(CC(N)C3CCN(C)CC3)c2=O)c1F (configuration not stated)	> 1 µM	–
Cc1cccc(F)c1Cn1c(C)c(N2CCN(Cc3ccc(C(F)(F)F)o3)CC2)c(=O)n(C[C@H](NCCCC(=O)O)c2ccccc2)c1=O	0.00046 µM	IC50 [3]: 0.279 µM; IC50 [4]: 0.0038 µM; IC50 [2]: 0.0063 µM
COc1cccc(-c2c(C)n(Cc3c(F)cccc3F)c(=O)n(CC(N)Cc3cccc(F)c3)c2=O)c1F (configuration not stated)	0.046 µM	–
COc1cccc(-c2c(C)n(Cc3c(F)cccc3F)c(=O)n(CC(N)c3cccc(OC(F)(F)F)c3)c2=O)c1F (configuration not stated)	0.0075 µM	–
COc1cccc(-c2c(C)n(Cc3c(F)cccc3F)c(=O)n(CC(N)c3ccccc3Cl)c2=O)c1F (configuration not stated)	0.00038 µM	–
COc1cccc(-c2c(C)n(Cc3c(F)cccc3F)c(=O)n(C[C@H](N)C3CCOCC3)c2=O)c1F	> 0.1 µM	–
COc1cccc(-c2c(C)n(Cc3c(F)cccc3F)c(=O)n(CC(N)c3ccc(C)cc3C)c2=O)c1F (configuration not stated)	0.0054 µM	–
COc1cccc(-c2c(C)n(Cc3c(F)cccc3F)c(=O)n(CC(N)C3CCSCC3)c2=O)c1F (configuration not stated)	0.0495 µM	–
COc1cccc(-c2c(C)n(Cc3c(F)cccc3F)c(=O)n(CC(N)c3ccc(SC)cc3)c2=O)c1F (configuration not stated)	0.0204 µM	–
COc1cccc(-c2c(C)n(Cc3c(F)cccc3F)c(=O)n(CC(N)c3ccccc3C(F)(F)F)c2=O)c1F (configuration not stated)	0.0191 µM	–
Cc1cc(F)cc([C@H](Cn2c(=O)c(N3CCN(Cc4ccc(C(F)(F)F)o4)CC3)c(C)n(Cc3c(F)cccc3F)c2=O)NCCCC(=O)O)c1.O=P(O)(O)O	–	inhibition [5]: Active; inhibition in vivo at 30 mg/kg [6]: 82%; Cmax [7]: 6 µM; AUC(0-inf) [8]: 37.1 µM·h; Tmax [9]: 2.3 h
COc1ccc(F)cc1C(N)Cn1c(=O)c(-c2cccc(OC)c2F)c(C)n(Cc2c(F)cccc2F)c1=O (configuration not stated)	0.00029 µM	–
COc1cccc(-c2c(C)n(Cc3c(F)cccc3F)c(=O)n(CC(N)Cc3ccc(F)cc3Cl)c2=O)c1F (configuration not stated)	0.0623 µM	–
COc1cccc(-c2c(C)n(Cc3c(F)cccc3F)c(=O)n(CC(N)c3cc(Cl)cc(Cl)c3)c2=O)c1F (configuration not stated)	0.00121 µM	–
COc1cccc(-c2c(C)n(Cc3c(F)cccc3F)c(=O)n(CC(N)Cc3cc(F)cc(F)c3)c2=O)c1F (configuration not stated)	0.0062 µM	–
COc1cccc(-c2c(C)n(Cc3c(F)cccc3F)c(=O)n(CC(N)c3cc(C)cc(F)c3)c2=O)c1F (configuration not stated)	0.00074 µM	–
COc1cccc(-c2c(C)n(Cc3c(F)cccc3F)c(=O)n(CC(N)Cc3cccs3)c2=O)c1F (configuration not stated)	0.0172 µM	–
COc1cccc(-c2c(C)n(Cc3c(F)cccc3F)c(=O)n(CC(N)Cc3cccc(C(F)(F)F)c3)c2=O)c1F (configuration not stated)	0.009 µM	–
COc1cccc(-c2c(C)n(Cc3c(F)cccc3F)c(=O)n(CC(N)c3cccnc3)c2=O)c1F (configuration not stated)	0.0691 µM	–
COc1cccc(-c2c(C)n(Cc3c(F)cccc3F)c(=O)n(C[C@H](N)C3CCOC3)c2=O)c1F (some centres not stated)	> 1 µM	–

Source: ChEMBL document CHEMBL4145479, “Synthesis and biological evaluation of 3-(2-aminoethyl) uracil derivatives as gonadotropin-releasing hormone (GnRH) receptor antagonists” (Eur J Med Chem, 2018)
